# Earlier results in paper PMC9271465 (ESMO Open, 2022).
# Where two headings read alike, the source gives them in different places.
# Assays:
# [1] = test system: EGFR-mutated NSCLC; conditions: cited from earlier work
# [2] = test system: EGFR T790M+ NSCLC; conditions: cited from earlier work
# [3] = cited from earlier work
# [4] = EGFR T790M+ advanced NSCLC after progression on prior EGFR-TKI
# [5] = central nervous system activity
# [6] = metastatic EGFR T790M+ NSCLC progressed during or after first-line EGFR-TKI
compound,measurement,setting,value
C#Cc1cccc(Nc2ncnc3cc4c(cc23)OCCOCCOCCO4)c1 [Icotinib],median OS,[1],30.5 months
same,median PFS,[1],11.2 months
C=CC(=O)Nc1cc(Nc2nccc(-c3cn(C4CC4)c4ccccc34)n2)c(OC)cc1N(C)CCN(C)C [almonertinib],intracranial ORR,[2]; [4],60.9%
same,updated ORR,[2]; [4],68.9%
same,DCR,[2]; phase I trial,89%
same,ORR,[2]; phase I trial,50%
same,PFS,[2]; phase I trial,9.6 months
C#Cc1cccc(Nc2ncnc3cc(OCCOC)c(OCCOC)cc23)c1 [erlotinib],median overall survival (OS),[1]; EGFR-mutated NSCLC,19.3-30.5 months
same,median progression-free survival (PFS),[1]; EGFR-mutated NSCLC,9.7-10.8 months
Cc1cc(C(=O)Nc2nc3cccc(Cl)c3n2[C@@H]2CCCCN(C(=O)/C=C/CN(C)C)C2)ccn1 [nazartinib],most common TRAEs,[3],rash/diarrhea
C=CC(=O)Nc1cc(Nc2nccc(-c3cn(C)c4ccccc34)n2)c(OCC(F)(F)F)nc1N(C)CCN(C)C [furmonertinib],ORR,[2]; EGFR T790M-mutated NSCLC,74%
same,median PFS,[2]; EGFR T790M-mutated NSCLC,9.6 months
C=CC(=O)Nc1cccc(Oc2nc(Nc3ccc(N4CCN(C)CC4)c(F)c3)nc3[nH]ccc23)c1 [abivertinib],most common TRAEs,[3],rash/diarrhea
C=CC(=O)Nc1cc(Nc2nccc(-n3cc(CN(C)C)c(-c4ccccc4)n3)n2)c(OC)cc1N1CCOCC1 [lazertinib],most common TRAEs,[3],rash/pruritis
C=CC(=O)Nc1cc(Nc2nccc(-c3cn(C)c4ccccc34)n2)c(OC)cc1N(C)CCN(C)C [osimertinib],intracranial DCR,[2]; [5],92%
same,intracranial ORR,[2]; [5],54%
same,ORR,[2]; [6],61%-71
same,median PFS,[2]; [6],9.6-15.2 months
